Reference: ChEMBL document CHEMBL1124556, “Biphenylcarboxamide derivatives as antagonists of platelet-activating factor” (J Med Chem, 1989)

Key:
Format in all cases: functional
[1] = test system: Cavia porcellus; experiment: 50% inhibitory dose in a guinea pig bronchoconstriction assay of intravenous administration; conditions: Lung, read-out: ID50 (the source's name)
[2] = test system: Cavia porcellus; experiment: 50% inhibitory dose in a guinea pig bronchoconstriction assay through peroral administration; conditions: Lung, po, read-out: ID50 (the source's name)
[3] = test system: Cavia porcellus; experiment: Platelet-activating factor-antagonist activity was assessed in guinea pig bronchoconstriction assay through peroral administration at a dose of 50 mg/kg at 2 hr; conditions: Lung, route oral
[4] = test system: Cavia porcellus; experiment: Platelet-activating factor-antagonist activity was assessed in guinea pig bronchoconstriction assay through peroral administration at a dose of 50 mg/kg at 6 hr; conditions: Lung, route oral
[5] = test system: Cavia porcellus; experiment: 50%inhibitory dose in a guinea pig bronchoconstriction assay through peroral administration; conditions: Lung, po, read-out: ID50 (the source's name)
[6] = test system: Cavia porcellus; experiment: 50% inhibitory dose in a guinea pig bronchoconstriction assay upon intravenous administration; conditions: Lung, read-out: ID50 (the source's name)

Row | SMILES | ED50 [1] [mg/kg] | ED50 [2] [mg/kg] | inhibition in vivo at 50 mg/kg [3] [%] | inhibition in vivo at 50 mg/kg [4] [%] | ED50 [5] [mg/kg] | ED50 [6] [mg/kg]
1 | CCCCc1cc(C(=O)N[C@H](C)CCCc2cccnc2)ccc1-c1ccc(OC)c(OC)c1 | 0.8 | 25 | 91 | 55 | – | –
2 | COc1ccc(-c2ccc(C(=O)NCCCCc3cccnc3)cc2OC)cc1OC | 0.52 | – | 64 | 13 | – | –
3 | COc1ccc(-c2ccc(C(S)=N[C@H](C)CCCc3cccnc3)cc2)cc1OC | 0.31 | – | 37 | – | – | –
4 | COc1ccc(-c2ccc(C(=O)N[C@H](C)CCCc3cccnc3)cc2)cc1OC | 0.62 | 30 | 88 | 29 | – | –
5 | CCc1cc(C(=O)N[C@H](C)CCCc2cccnc2)ccc1-c1ccc(OC)c(OC)c1 | 0.34 | 24 | 89 | 23 | – | –
6 | O=C(NCCCCc1cccnc1)c1ccc(-c2ccccc2)c(-c2ccccc2)c1 | 3.2 | – | 33 | – | – | –
7 | C=CCc1cc(C(=O)N[C@H](C)CCCc2cccnc2)ccc1-c1ccc(OC)c(OC)c1 | 0.33 | 24 | 93 | 26 | – | –
8 | COc1cccc(-c2ccc(C(=O)NCCCCc3cccnc3)cc2)c1 | – | – | 55 | – | 50 | 0.51
9 | COc1ccc(-c2ccc(C(=O)NCCCCc3cccnc3)cc2[N+](=O)[O-])cc1OC | 0.76 | 39 | 62 | 4 | – | –
10 | COc1ccc(-c2ccc(C(=O)N[C@H](C)CCCc3cccnc3)cc2[N+](=O)[O-])cc1OC | 0.19 | 22 | 89 | 36 | – | –
11 | COc1cccc(-c2ccc(C(=O)N[C@H](C)CCCc3cccnc3)cc2)c1 | 0.45 | – | 44 | – | – | –
12 | COc1ccc(-c2ccc(C(=O)NCCCCc3cccnc3)cc2Br)cc1OC | 0.4 | 19 | 74 | 1 | – | –
13 | COc1ccc(-c2ccc(C(=O)N[C@H](C)CCCc3cccnc3)cc2Br)cc1OC | 0.4 | 14 | 97 | 59 | – | –
